PubChem BioAssay (NCI)
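Method: 48-hour compound exposure of cells in 96-well plates, five concentrations, linear interpolation of endpoints. Here, GI50 denotes the concentration required for 50% inhibition of growth. Definition used: TGI = concentration required for complete inhibition of growth.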

What was measured:
Assay in all cases: growth of human tumour cells (NCI), 48 h
A498 renal = tested on: A498 renal
BT-549 breast = tested on: BT-549 breast
SK-MEL-2 melanoma = tested on: SK-MEL-2 melanoma
CAKI-1 renal = tested on: CAKI-1 renal
T-47D breast = tested on: T-47D breast
UACC-62 melanoma = tested on: UACC-62 melanoma
HCT-15 colon = tested on: HCT-15 colon
LOX IMVI melanoma = tested on: LOX IMVI melanoma
MDA-MB-435 = tested on: MDA-MB-435
SNB-75 CNS = tested on: SNB-75 CNS

Row | Compound | TGI (A498 renal) [µM] | TGI (BT-549 breast) [µM] | TGI (SK-MEL-2 melanoma) [µM] | TGI (CAKI-1 renal) [µM] | TGI (T-47D breast) [µM] | TGI (UACC-62 melanoma) [µM] | TGI (HCT-15 colon) [µM] | TGI (LOX IMVI melanoma) [µM] | TGI (MDA-MB-435) [µM] | TGI (SNB-75 CNS) [µM] | GI50 (A498 renal) [µM] | GI50 (BT-549 breast) [µM] | GI50 (SK-MEL-2 melanoma) [µM] | GI50 (CAKI-1 renal) [µM] | GI50 (T-47D breast) [µM] | GI50 (UACC-62 melanoma) [µM] | GI50 (HCT-15 colon) [µM] | GI50 (LOX IMVI melanoma) [µM] | GI50 (MDA-MB-435) [µM] | GI50 (SNB-75 CNS) [µM]
1 | Cc1cc(OP2(=O)NCc3ccncc3O2)ccc1Cl (stereo not given) | > 100 | > 100 | > 100 | > 100 | > 100 | > 100 | > 100 | > 100 | > 100 | > 100 |  |  |  |  |  |  |  |  |  | 
2 | Cc1ccc(F)c2[nH]c(-c3ccccc3)cc(=O)c12 | > 100 | > 100 | > 100 | > 100 | > 100 | > 100 | > 100 | > 100 | > 100 | > 30.6 |  |  |  |  |  |  |  |  |  | 
3 | Cc1cn(CC2(CO)CCC2)c(=O)[nH]c1=O | > 100 | > 100 | > 100 | > 100 | > 100 | > 100 | > 100 | > 100 | > 100 | > 100 |  |  |  |  |  |  |  |  |  | 
4 | COC(Cc1cc(C(O)(c2ccc(C(C)(C)C)cc2)c2cc(CC(OC)(c3cc(C(OC)(c4ccc(C(C)(C)C)cc4)c4ccc(C(C)(C)C)cc4)c(C)cc3C)c3cc(C(OC)(c4ccc(C(C)(C)C)cc4)c4ccc(C(C)(C)C)cc4)c(C)cc3C)c(C)cc2C)c(C)cc1C)(c1cc(C(OC)(c2ccc(C(C)(C)C)cc2)c2ccc(C(C)(C)C)cc2)c(C)cc1C)c1cc(C(OC)(c2ccc(C(C)(C)C)cc2)c2ccc(C(C)(C)C)cc2)c(C)cc1C | > 75 | > 75 | > 75 | > 75 | > 75 | > 75 | > 75 | > 75 | > 75 | > 75 |  |  |  |  |  |  |  |  |  | 
5 | CCN(CC)CCOCCOCC1(c2ccc(Cl)c(Cl)c2)CCCCC1 | 27.6 | 26 | 28.6 | 22.9 | 17.7 | 22.1 | 15.3 | 21.4 | 13.6 | 20.4 |  |  |  |  |  |  |  |  |  | 
6 | Cc1ccc2c(ccc3ncc(CNc4ccc(NS(C)(=O)=O)cc4)c32)[nH]1 | 33.8 | > 100 | 38.5 | 58 | 47.7 | 34.2 | > 100 | 46.2 | 31.5 | 34 |  |  |  |  |  |  |  |  |  | 
7 | CCOc1cc2c(cc1O)C=C[C@@H]1[C@@H]2CC[C@]2(C)[C@@H](O)CC[C@@H]12 | 57.9 | > 100 | 42 | 28.9 | 77.4 | > 43.1 | 20.1 | 30.4 | 1.36 | > 58.6 |  |  |  |  |  |  |  |  |  | 
8 | Cc1ccc(N2C=Nn3c(nc4sc5c(c4c3=O)CCCC5)C2)cc1 | > 100 | > 100 | > 100 | > 100 | > 100 | > 100 | > 100 | > 100 | > 100 | > 100 |  |  |  |  |  |  |  |  |  | 
9 | COc1ccccc1N1C(=O)CSC1c1cccc(Oc2ccccc2)c1 (stereo not given) | 36.6 | 31.9 | 29.9 | 74.5 | 58.1 | 30.1 | 37.4 | 32.4 | 32 | 41.7 |  |  |  |  |  |  |  |  |  | 
10 | C[C@H](CCC(=O)O)[C@H]1CC[C@H]2[C@@H]3[C@H](O)[C@H](O)[C@@H]4C[C@H](O)CC[C@]4(C)[C@H]3CC[C@]12C | > 100 | > 100 | > 100 | > 100 | > 100 | > 100 | > 100 | > 100 | > 100 | > 100 |  |  |  |  |  |  |  |  |  | 
11 | CCOC(=O)c1ccc(Nc2nc3ccccc3n3cccc23)cc1 | > 100 | > 100 | > 100 | > 100 | 47.7 | > 100 | > 100 | > 100 | > 100 | 48.3 |  |  |  |  |  |  |  |  |  | 
12 | COc1cc(-c2n/c(=C\c3c(O)[nH]c4ccccc34)cc3c2=Nc2ccccc2-3)ccc1F | > 100 | 18.1 | 62.2 | > 100 | 82 | 21.7 | > 100 | 59.7 | 64.4 | 63.6 | 40.4 | 4.07 | 21.7 | 38.5 | 6.87 | 5.98 | 17.2 | 9.09 | 5.8 | 16.2
13 | O=C(N/N=C\c1ccc(N(CCCl)CCCl)cc1)c1cccnc1 | > 100 | > 100 | > 100 | > 100 | > 100 | > 100 | > 100 | > 100 | > 100 | > 100 | 42.2 | 19.7 | > 100 | 8.53 | 26.5 | 9.1 | 37.1 | 21.3 | 33.4 | 33.7
14 | C[n+]1c2ccccc2n2c3ccccc3c(NCc3ccco3)c(C#N)c21 | 20.4 | > 100 | 6.51 | 7.36 | > 28.7 | 11.7 | 4.34 | 3.65 | 4.34 | 6.86 |  |  |  |  |  |  |  |  |  | 
15 | COc1cc(/C=C2\C(=O)Nc3ccc(Cl)cc32)cc(OC)c1OC | 72.4 | 92.3 | > 100 | > 100 | > 100 | > 100 | > 100 | > 100 | 9.37 | 21.8 | 23.2 | 22.3 | 31.9 | 23.6 | > 100 | 16.3 | 9.16 | 21.9 | 3.26 | 7
16 | CCOC(=O)C1=NN(c2ccc(C)cc2)C2(c3ccccc3)C=C(c3ccccc3)N(C)CCN12 (stereo not given) | > 100 | > 100 | > 100 | > 100 | > 100 | > 100 | > 100 | > 100 | > 100 | > 100 |  |  |  |  |  |  |  |  |  | 
17 | Cn1c2ccccc2c2c3c(c4c5ccccc5n(C)c4c21)C(=O)N(Cc1ccccc1)C3=O | > 100 | > 100 | > 100 | > 100 | > 100 | > 100 | > 100 | > 100 | > 100 | > 100 |  |  |  |  |  |  |  |  |  | 
18 | Cc1cn(CCCCOC(=O)NC(CCCN=C(N)N)C(=O)O)c(=O)[nH]c1=O (stereo not given) | > 100 | > 100 | > 100 | > 100 | > 100 | > 100 | > 100 | > 100 | > 100 | > 100 |  |  |  |  |  |  |  |  |  | 
19 | CS(=O)(=O)c1ccc(C(=O)O[C@@H]2C(=O)N3CC[C@H]4OC(O)[C@@H]2[C@H]43)cc1 (stereo not given in full) | > 100 | > 100 | > 100 | > 100 | > 100 | > 100 | > 100 | > 100 | > 100 | > 100 |  |  |  |  |  |  |  |  |  | 
20 | O=C(CSc1nc2ccc(I)cc2c(=O)n1Cc1ccccc1)NNC(=S)Nc1ccccc1 | > 100 | > 100 | > 100 | > 100 | > 100 | > 100 | > 100 | > 100 | > 100 | > 100 |  |  |  |  |  |  |  |  |  | 
21 | COc1c(O)cc2c(c1O)C(=O)C(Cc1ccc(O)cc1)CO2 (stereo not given) | > 100 | > 100 | > 100 | > 100 | > 100 | > 100 | > 100 | > 100 | 76.8 | 91.9 |  |  |  |  |  |  |  |  |  | 
22 | COc1nc2ccc(Cl)c(C(O)c3ccccc3)c2nc1OC (stereo not given) | 37.1 | 80.7 | 45 | 45.3 | 99.4 | 96.3 | 50.1 | 36.5 | 42.8 | > 100 |  |  |  |  |  |  |  |  |  | 
23 | CC(C)(C)n1[nH]c(=O)n(C(C)(C)C)c1=O | > 100 | > 100 | > 100 | > 100 | > 100 | > 100 | > 100 | > 100 | > 100 | > 100 |  |  |  |  |  |  |  |  |  | 
24 | CSc1c(C(N)=S)c(N)nn1-c1ccccc1 | > 100 | > 100 | > 100 | > 100 | > 100 | > 100 | > 100 | > 100 | > 100 | > 100 |  |  |  |  |  |  |  |  |  | 
25 | CC12CP(=O)(O)CC1C2(Cl)Cl (stereo not given) | > 100 | > 100 | > 100 | > 100 | > 100 | > 100 | > 100 | > 100 | > 100 | > 100 |  |  |  |  |  |  |  |  |  | 
26 | CCCCCCCCCCCCCC(=O)OCC(CCS(=O)(=O)O[C@H]1CC[C@@]2(C)C(=CC[C@@H]3C2CC[C@]2(C)C(=O)CCC32)C1)OC(=O)CCCCCCCCCCCCC (stereo not given in full) | > 100 | > 100 | > 100 | > 100 | > 100 | > 100 | > 100 | > 100 | > 100 | > 100 |  |  |  |  |  |  |  |  |  | 
27 | Cc1nc(-c2cccnc2)sc1C(=O)CC(=O)C(=O)Nc1cccc(NC(=O)C(=O)CC(=O)c2sc(-c3cccnc3)nc2C)n1 | > 100 | > 100 | > 100 | > 100 | > 100 | > 100 | > 100 | > 100 | > 100 | > 100 |  |  |  |  |  |  |  |  |  | 
